{"source": "patent US7166435B2", "about": "(priority 2001, dated 2007)", "key": {"[1]": {"test_system": "Influenza B/Guangdong/120/00", "format": "cell-based", "details": "Citrate Buffer control"}, "[2]": {"test_system": "Influenza A/Moscow/10/99", "format": "cell-based", "details": "Citrate Buffer control"}, "[3]": {"test_system": "influenza virus", "format": "in vivo, ferret", "details": "for Mean Difference (I−J), Weight Change separated into pens: pairwise comparison"}, "[4]": {"details": "recipient ferrets, 8 per group, >2SD rise in temperature"}}, "note": "Entries after “also recorded” stand apart in the source; their conditions may differ. Where two headings read alike, the source gives them in different places.", "data": [{"smiles": "O=C(O)CC(O)(CC(=O)O)C(=O)O", "note": "[Citrate Buffer]", "values": [{"measurement": "B/Guangdong log reductions", "setting": "[1]; 1 minute incubation", "value": "1.80 −log10 TCID50"}, {"measurement": "Residual B/Guangdong titer", "setting": "[1]; 1 minute incubation", "value": "0.00 −log10 TCID50"}, {"measurement": "B/Guangdong log reductions", "setting": "[1]; 2 minute incubation", "value": "1.80 −log10 TCID50"}, {"measurement": "Residual B/Guangdong titer", "setting": "[1]; 2 minute incubation", "value": "0.00 −log10 TCID50"}, {"measurement": "B/Guangdong log reductions", "setting": "[1]; 5 minute incubation", "value": "1.80 −log10 TCID50"}, {"measurement": "Residual B/Guangdong titer", "setting": "[1]; 5 minute incubation", "value": "0.00 −log10 TCID50"}, {"measurement": "A/Moscow log reductions", "setting": "[2]; 1 minute incubation", "value": "1.00 −log10 TCID50"}, {"measurement": "Residual A/Moscow titer", "setting": "[2]; 1 minute incubation", "value": "1.80 −log10 TCID50"}, {"measurement": "A/Moscow log reductions", "setting": "[2]; 2 minute incubation", "value": "1.00 −log10 TCID50"}, {"measurement": "Residual A/Moscow titer", "setting": "[2]; 2 minute incubation", "value": "1.80 −log10 TCID50"}, {"measurement": "A/Moscow log reductions", "setting": "[2]; 5 minute incubation", "value": "2.80 −log10 TCID50"}, {"measurement": "Residual A/Moscow titer", "setting": "[2]; 5 minute incubation", "value": "0.00 −log10 TCID50"}]}, {"smiles": "CCOC(=O)C1=C[C@@H](OC(CC)CC)[C@H](NC(C)=O)[C@@H](N)C1", "note": "[Tamiflu ™, oseltamivir phosphate]", "values": [{"measurement": "No. of Ferrets per pen with Fever (>2SD rise), mild febrile illness", "setting": "[3]; four recipient ferrets per pen, pens a and b", "value": 2}, {"measurement": "X^2 analysis of fever (2SD rise), p PBS versus treatment", "setting": "[3]; in vivo", "value": 0.106}, {"measurement": "X^2 analysis of fever (3SD rise), p PBS versus treatment", "setting": "[3]; in vivo", "value": 0.106}, {"measurement": "seroconversion of recipient ferrets", "setting": "[3]; in vivo", "value": "did not seroconvert; also recorded: no seroconversion"}, {"measurement": "Mean Difference (I−J), Weight Change separated into pens", "setting": "[3]; (I) group PBS minus (J) treatment group, recipient ferrets, weight loss peak to trough as percentage of day 0 baseline weight", "value": "−1.880"}, {"measurement": "weight loss, p PBS versus treatment", "setting": "[3]; recipient ferrets", "value": 0.003}, {"measurement": "% within Group No., Fever => 2SD rise from baseline: No", "setting": "[3]; [4]", "value": 50, "unit": "%"}, {"measurement": "% within Group No., Fever => 2SD rise from baseline: yes", "setting": "[3]; [4]", "value": 50, "unit": "%"}, {"measurement": "Count of ferrets, Fever => 2SD rise from baseline: No", "setting": "[3]; [4]", "value": 4}, {"measurement": "Count of ferrets, Fever => 2SD rise from baseline: yes", "setting": "[3]; [4]", "value": 4}, {"measurement": "Weight Change separated into pens, Mean", "setting": "[3]; recipient ferrets, peak to trough as a percentage of the baseline weight on day 0", "value": "−.980%"}, {"measurement": "No. of ferrets per group with Fever (>2SD rise), mild febrile illness", "setting": "[3]; two pens per group", "value": 4}, {"measurement": "No. of ferrets per group with Fever (>3SD rise)", "setting": "[3]; two pens per group", "value": 1}]}, {"smiles": "CCOC(=O)C1=C[C@@H](OC(CC)CC)[C@H](NC(C)=O)[C@@H](N)C1", "note": "[Tamiflu]", "values": [{"measurement": "Mean Difference (I−J), Weight Change separated into pens", "setting": "[3]; (I) treatment group minus (J) 25% horseradish", "value": ".161"}, {"measurement": "Mean Difference (I−J), Weight Change separated into pens", "setting": "[3]; (I) treatment group minus (J) 50% horseradish", "value": ".497"}, {"measurement": "Mean Difference (I−J), Weight Change separated into pens", "setting": "[3]; (I) treatment group minus (J) 100% Horseradish", "value": ".251"}, {"measurement": "Mean Difference (I−J), Weight Change separated into pens", "setting": "[3]; (I) treatment group minus (J) PBS, recipient ferrets", "value": "−1.880"}]}]}
